Results: patent US20240327356A1, “PYRIMIDINE BASED RAS MODULATORS AND USES THEREOF” (QUANTA THERAPEUTICS, INC., priority 2021, published 2024)

What was measured:
[1] = target: KRAS^G12D-FMe.RAF1^RBDCRD complex (Homo sapiens, UniProt P01116, G12D); experiment: SHG assay: binding to bilayer-tethered KRAS G12D/RAF1 complex; settings: GppNHp-loaded complex on PS bilayer; compound 0.027-40 μM, monitored over 60 min
Method: Compounds suspected to carry intrinsic SHG activity were tested in the presence of an unlabeled KRAS^G12D-FMe.RAF1^RBDCRD complex to monitor binding. PS bilayer was prepared from PS-enriched small unilamellar vesicles (SUVs) purchased from Biodesy, Inc. The concentrated SUVs were diluted in TBS buffer containing 5 mM CaCl2 and incubated on a glass-bottom 384-well Biodesy Delta™ assay plate to allow bilayer formation. Equimolar amounts of GppNHp-loaded KRAS^G12D-FMe and RAF1^RBDCRD were mixed and incubated together on PS bilayer overnight at 4° C. The following day, untethered protein was removed by washing with assay buffer (20 mM Hepes, pH 7.4, […], 1 mM TCEP, 5 μM GppNHp). The SHG signal produced by bilayer-tethered complex was ready using the Biodesy Delta™ platform where each well was pulsed with an 800 nm laser and the resulting second harmonic signal intensity at 400 nm was collected. Compounds were diluted into the same assay buffer and applied to the complex at a final concentration range spanning 0.027 μM-40 μM and the SHG intensity of each well was monitored at 5 minute intervals over a 60 minute time period.

[2] = tested on: pERK (ERK phospho-T202/Y204) in SW-480 cells; experiment: pERK inhibition in SW-480 cell line (HTRF); assay type: cell-based; settings: Homo sapiens, SW480, 1 hour incubation with compound
Method: SW-480 cells were cultured in Leibovitz's L15 (Gibco Cat. No. 11415064), supplemented with 10% fetal bovine serum (Gibco, Cat. No. 1993708), and 1% penicillin and streptomycin. Cells were grown at 37° C., under atmospheric conditions without additional CO2. Cells were seeded into a 96-well tissue-culture treated plate (Greiner, Cat. No. 655180) at a density of 30,000 cell per well, and allowed to adhere for 16 hours before the media was removed, and cells were treated with compounds diluted into culture media at the indicated concentrations. After 1 hour of incubation in the presence of compound, cells were harvested to measure pERK levels using the lysis buffer supplied with the Homogenous Time Resolved Fluorescence pERK kit (HTRF, Cisbio Advance ERK phospho-T202/Y204, Cat. No. 64AERPEG). Lysates were transferred to a 384-well low-volume white plate (PerkinElmer, Cat. No. 6008280) and then treated with the detection reagents supplied by the HTRF kit, according to the “2-plate” protocol supplied by the manufacturer, and incubated for 4-hours at ambient temperature in darkness. Assay plates were read at two fluorescent wavelengths (665 nm and 620 nm) using an Envision plate reader (Perkin Elmer) and data was processed and fitted to a 4-parameter logistic model using Graphpad Prism 8.0 to calculate IC50 values.

[3] = tested on: Phospho-ERK (Thr202/Tyr204) in MiaPaCa-2 cells; experiment: pERK inhibition in MiaPaca-2 cell line (HTRF); assay type: cell-based; settings: Homo sapiens, MIA PaCa-2, 1 hour incubation with compound
Method: MiaPaCa-2 cells (ATCC CRL-1420) were cultured in high glucose DMEM (Gibco 11965092) containing 10% fetal bovine serum (Gibco 1993708) and 1× Penicillin/Streptomycin, at 37° C. in a humid atmosphere of 5% CO2 in the air. Cells were plated in tissue-culture treated 96-well plates at a density of 10,000 cells/well and allowed to attach for 16 hours. The medium was then removed, and diluted compounds were added in a final concentration of 0.5% DMSO. After 1 hour of incubation, cells were lysed by the lysis buffer supplied with the Phospho-ERK (Thr202/Tyr204) cellular HTRF kit (Cisbio 64ERKPEH) and transferred to a 384-well low-volume white plate (PerkinElmer 6008280). The cell lysates were treated with the detection reagents supplied with the HTRF kit for 4 hours at ambient temperature in darkness. Two fluorescence intensities at the wavelengths (665 and 620 nm) were measured by the Envision plate reader (Perkin Elmer), and the data were processed and fitted to a 4-parameter logistic model for IC50 calculation (GraphPad Prism 9).

Row | Compound | EC50 [1] [µM] | IC50 [2] [µM] | IC50 [3] [µM]
1 | Cc1ccc(-c2ncc(CNC(=O)C3(C#N)CC3)c(N3CCC(CN)C3)n2)cc1Cl (stereo not shown) [Compound 41] | 1 to 10 | 1 to 10 | 0.1 to 1
2 | N#CC1(C(=O)NCc2cnc(-c3ccc(Cl)c(C(F)F)c3)nc2N2CCC(CN)C2)CC1 (stereo not shown) [Compound 57] | 10 to 50 | 1 to 10 | 1 to 10
3 | Cc1ccc(-c2ncc(CNC(=O)C3(F)CC3)c(N3CCC(CN)C3)n2)cc1Cl (stereo not shown) [Compound 59] | 1 to 10 | 1 to 10 | 1 to 10
4 | Cc1ccc(-c2ncc(CNC(=O)C3(C#N)CC3)c(N3CC[C@@H](CN)C3)n2)cc1Cl [Compound 62] | 1 to 10 | 1 to 10 | 0.1 to 1
5 | Cc1ccc(-c2ncc(CNC(=O)C3(F)CC3)c(N3CC[C@@H](CN)C3)n2)cc1Cl [Compound 72] |  | 1 to 10 | 1 to 10
6 | Cc1ccc(-c2ncc(CNC(=O)C3(C#N)CC3)c(N3CC[C@H](CN)C3)n2)cc1Cl [Compound 73] | 1 to 10 | 0.1 to 1 | 0.1 to 1
7 | Cc1ccc(-c2ncc(CNC(=O)C3(F)CC3)c(N3CCN(C)CC3)n2)cc1Cl [Compound 83] | 10 to 50 | 10 to 50 | 1 to 10
8 | Cc1ccc(-c2ncc(CNC(=O)C3(F)CC3)c(N3C[C@@H]4[C@@H](N)[C@@H]4C3)n2)cc1Cl [Compound 84] | 1 to 10 | 1 to 10 | 1 to 10
9 | Cc1ccc(-c2ncc(CNC(=O)C3(F)CC3)c(N3CCNCC3)n2)cc1Cl [Compound 91] | 1 to 10 | 1 to 10 | 1 to 10
10 | Cc1ccc(-c2ncc(CNC(=O)C3(F)CC3)c(N3CCC(N)CC3)n2)cc1Cl [Compound 92] | 1 to 10 |  | 1 to 10
11 | Cc1ccc(-c2ncc(CNS(=O)(=O)c3ccccc3)c(N3CCC(CN)C3)n2)cc1Cl (stereo not shown) [Compound 94] | 1 to 10 |  | 1 to 10
12 | N#CC1(C(=O)NCc2cnc(-c3ccc4c(c3)CCC4)nc2N2CCC(CN)C2)CC1 (stereo not shown) [Compound 104] | 10 to 50 | 1 to 10 | 0.1 to 1
13 | Cc1ccc(-c2ncc(NS(=O)(=O)c3ccccc3)c(N3CCC(CN)C3)n2)cc1Cl (stereo not shown) [Compound 112] | 1 to 10 | 1 to 10 | 1 to 10
14 | Cc1ccc(-c2ncc(NC(=O)C3CC3)c(N3CCC(CN)C3)n2)cc1Cl (stereo not shown) [Compound 113] | 10 to 50 |  | 1 to 10
15 | CCOC(=O)NCc1cnc(-c2ccc(C)c(Cl)c2)nc1N1CCC(CN)C1 (stereo not shown) [Compound 118] | 10 to 50 |  | 1 to 10
16 | Cc1ccc(-c2ncc(CN3CCOC3=O)c(N3CCC(CN)C3)n2)cc1Cl (stereo not shown) [Compound 121, 3-[[4-[3-(aminomethyl)pyrrolidin-1-yl]-2-(3-chloro-4-methyl-phenyl)pyrimidin-5-yl]methyl]oxazolidin-2-one] | 1 to 10 |  | 1 to 10

Continued, values first:

Row | EC50 [1] [µM] | IC50 [2] [µM] | IC50 [3] [µM] | Compound
17 | 1 to 10 | 1 to 10 | 1 to 10 | N#CC1(C(=O)NCc2cnc(-c3ccc(Cl)c(C(F)(F)F)c3)nc2N2CCC(CN)C2)CC1 (stereo not shown) [Compound 5, N-[[4-[3-(aminomethyl)pyrrolidin-1-yl]-2-[4-chloro-3-(trifluoromethyl)phenyl]pyrimidin-5-yl]methyl]-1-cyano-cyclopropanecarboxamide]
18 | 10 to 50 | 1 to 10 | 1 to 10 | Cc1cc(-c2ncc(CNC(=O)C3(C#N)CC3)c(N3CCC(CN)C3)n2)ccc1Cl (stereo not shown) [Compound 52]
19 | 1 to 10 | 1 to 10 | 0.1 to 1 | Cc1ccc(-c2ncc(CNC(=O)C3(C#N)CC3)c(N3CCC(N)CC3)n2)cc1Cl [Compound 67]
20 | 1 to 10 | 1 to 10 | 1 to 10 | Cc1ccc(-c2ncc(CNC(=O)C3(C#N)CCC3)c(N3CCC(CN)C3)n2)cc1Cl (stereo not shown) [Compound 87]
21 | 1 to 10 | 1 to 10 | 1 to 10 | NCC1CCN(c2nc(-c3ccc(C(F)(F)F)c(Cl)c3)ncc2N2CCCC2=O)C1 (stereo not shown) [Compound 90, 1-[4-[3-(aminomethyl)pyrrolidin-1-yl]-2-[3-chloro-4-(trifluoromethyl)phenyl]pyrimidin-5-yl]pyrrolidin-2-one]
22 | 1 to 10 |  | 1 to 10 | Cc1ccc(-c2ncc(CNC(=O)C3(F)CC3)c(N3CC[C@H](CN)C3)n2)cc1Cl [Compound 93]
23 | 1 to 10 |  | 1 to 10 | Cc1ccc(-c2ncc(CNC(=O)C3(O)CC3)c(N3CCC(CN)C3)n2)cc1Cl (stereo not shown) [Compound 96]
24 | 1 to 10 |  | 1 to 10 | Cc1ccc(-c2ncc(CN(C)C(=O)C3(F)CC3)c(N3CCNCC3)n2)cc1Cl [Compound 98]
25 | 10 to 50 |  | 1 to 10 | Cc1ccc(-c2ncc(CNC(=O)C3(F)CC3)c(N3CC(CN)C3)n2)cc1Cl [Compound 101]
26 | 1 to 10 |  | 1 to 10 | Cc1ccc(-c2ncc(CNC(=O)C3(F)CNC3)c(N3CCC(CN)C3)n2)cc1Cl (stereo not shown) [Compound 102]
27 | 10 to 50 | 1 to 10 | 0.1 to 1 | Cc1ccc(-c2ncc(CNC(=O)C3(CO)CC3)c(N3CCC(CN)C3)n2)cc1Cl (stereo not shown) [Compound 105]
28 | 1 to 10 |  | 1 to 10 | NCC1CCN(c2nc(-c3ccc(C(F)(F)F)c(Cl)c3)ncc2N2CCNC2=O)C1 (stereo not shown) [Compound 109, 1-[4-[3-(aminomethyl)pyrrolidin-1-yl]-2-[3-chloro-4-(trifluoromethyl)phenyl]pyrimidin-5-yl]imidazolidin-2-one]
29 | 10 to 50 |  | 1 to 10 | Cc1ccc(-c2ncc(NC(=O)C3(C#N)CC3)c(N3CCC(CN)C3)n2)cc1Cl (stereo not shown) [Compound 110]
30 | 1 to 10 |  | 1 to 10 | Cc1ccc(-c2ncc(CN3CCNC3=O)c(N3CCC(CN)C3)n2)cc1Cl (stereo not shown) [Compound 119]
31 | 10 to 50 |  | 1 to 10 | Cc1ccc(-c2ncc(CN3CCN(C)C3=O)c(N3CCC(CN)C3)n2)cc1Cl (stereo not shown) [Compound 120]
32 | 1 to 10 |  | 1 to 10 | Cc1ccc(-c2ncc(CN3CCCC3=O)c(N3CCC(CN)C3)n2)cc1Cl (stereo not shown) [Compound 122]
33 | 1 to 10 |  | 1 to 10 | Cc1ccc(-c2ncc(OCC(=O)NC3CC3)c(N3CCC(CN)C3)n2)cc1Cl (stereo not shown) [Compound 126]
